Article PMC9656801, “Synthesis of Cyclotetrapeptides Analogues to Natural Products as Herbicides” (Molecules, 2022)
Read-outs that look alike come from different tables or passages of the source. Non-standard residues stand in square brackets, D forms with d. Residues, ends and D or L forms follow the SMILES beside them. NMeF = CN[C@@H](Cc1ccccc1)C(=O)O; dNMeF = CN[C@H](Cc1ccccc1)C(=O)O; NMeA = CN[C@@H](C)C(=O)O; Sar = CNCC(=O)O

Columns and labels:
[1] = tested on: Lolium multiflorum (Ryegrass) seeds; assay: whole plant or invertebrate; assay type: in vivo; conditions: agar germination; for Radicle growth inhibition (%): 67 µg/mL, 20 °C, evaluated after 12 days, three replicates of ten seeds, relative to DMSO negative control
Procedure: The herbicidal activity of cyclotetrapeptides 16–25, 27 and the linear precursors 4–8, 10, 12–15 were evaluated for their influence on germination, leaf development and radicle length growth of ryegrass seeds at 67 μg/mL using germination in agar methodology. DMSO was used as negative control and the herbicide S-metolachlor as positive control. […] The results were expressed as % of radicle growth inhibition, calculated as the percentage between the treatment with each compound and radicle length growth for the negative control (DMSO), as shown in Figure 3.
The experiments to determine the herbicidal activity of the cyclopeptide compounds were carried out on Lolium multiflorum (Raygrass) plants. Germination, root length and leaf development were evaluated, compared to a control without herbicide, a negative control (100 μL DMSO in 15 mL agar, used as solvent) and an herbicide control (1/8 of the commercial dose of the herbicide S-metolachlor).
Serial experiments were conducted using the Agar germination methodology, where the tested compounds and the respective controls were placed in glass Petri dishes (6 cm diameter) in three replicates per treatment. Ten ryegrass seeds were germinated in a growth chamber (20 °C, day/night temperature). The seeds were previously sterilized by immersing them in 70% alcohol for 10 s. When distributed in the Petri dish on the agar, the seeds were placed in such a way as to ensure that they remained submerged in the solution.
Agar–water solution was prepared at 0.3%, 3 g of agar was placed in 1 liter of deionized water, and the solution was autoclaved at 100 °C for 45 min. Once the agar medium had cooled to approximately 60 °C, the solutions were prepared.
The negative control–DMSO control was prepared by adding 100 μL of DMSO per plate in 15 mL of agar and then the seeds were distributed, as mentioned above. A control without DMSO was also carried out to check that the product was not altering the correct development of the ryegrass seeds. For this test, 15 ml of agar were placed in each Petri dish and, before it solidified, the seeds of the species evaluated were placed on top. The herbicide treatment, positive control–Control S-Metolachlor (960 g/L), was carried out for a conversion of 1/8 of the dose of 1 L/ha of commercial product. For this purpose, a stock solution of S-Metolachlor was prepared by placing 0.28 mL of the herbicide in a volumetric flask and topping up to 1000 mL. A total of 25 mL of this stock solution were taken, placed in a volumetric flask and brought to 200 mL, thus, generating the 1/8x solution of S-Metolachlor. A volume of 3 mL of 1/8x herbicide solution was mixed with 45 mL of the agar solution to bring 16 mL into each Petri dish. This ensured that there was 1 mL of 1/8x S-Metolachlor solution per plate: 0.28 μL of herbicide solution. Seeds were arranged in the same way. Using the same method, the agar media corresponding to each plate (15 mL) was mixed with the cyclopeptides dissolved in 100 μL of DMSO.
Germination, root length and leaf development were evaluated 12 days after preparation. The variables of germinated plants and plants with developed leaves of the total number of plants placed to germinate were analyzed by fitting a generalized linear model, since they presented a binomial distribution.
Glinmix procedure of the SAS statistical package. Based on the model and for the comparison of the treatments with the different controls, the contrasts of interest were carried out. The effect of the treatments on the root length variable was studied by comparing means using a Tukey test (p-value < 0.05) in INFOSTAT.
5. Procedure for evaluation of phytotoxic activity
Experiments for determining the herbicidal activity of cyclopeptide compounds were carried out on Lolium multiflorum (Ray grass) plants. Germination, root length, and leaf development were evaluated compared to a control without herbicide, a negative […]

[2] = tested on: Lolium multiflorum (Ryegrass) seeds; assay type: in vivo; conditions: agar germination
[3] = amide bond, 12-membered ring
HepG2 cells = conditions: cited from earlier work
cyanobacteria = conditions: cited from earlier work
[4] = tested on: Lolium multiflorum (Ryegrass) seeds; conditions: 67 μg/mL; cited from earlier work
[5] = 11 µM, 12 days, relative to DMSO control
[6] = 6 µM, 12 days, relative to DMSO control

Compound: CC(C)C[C@H](NC(=O)[C@H](C)N)C(=O)N[C@@H](Cc1ccccc1)C(=O)N(C)CC(=O)O [Compound 6, NH2-Ala-Leu-Phe-NMeGly-OH] (H-ALF[Sar]-OH)
- Radicle growth inhibition (%) [1]: 92% and greater than 85%

Compound: CC(C)C[C@H](NC(=O)[C@H](C)N)C(=O)N(C)[C@H](Cc1ccccc1)C(=O)NCC(=O)O [Compound 7, NH2-Ala-Leu-N-Me-D-Phe-Gly-OH] (H-AL[dNMeF]G-OH)
- Radicle growth inhibition (%) [1]: 94% and greater than 85%
- Radicle growth inhibition (%) [2, 5]: 48%

Compound: CC(C)C[C@H](NC(=O)[C@H](C)N)C(=O)N(C)[C@@H](Cc1ccccc1)C(=O)N(C)CC(=O)O [Compound 10, NH2-Ala-Leu-N-MePhe-N-MeGly-OH] (H-AL[NMeF][Sar]-OH)
- Radicle growth inhibition (%) [1]: greater than 85%
- Radicle growth inhibition (%) [2, 5]: 15%

Compound: CN[C@@H](C)C(=O)N[C@@H](Cc1ccccc1)C(=O)N(C)[C@@H](Cc1ccccc1)C(=O)NCC(=O)O [Compound 13, N-MeAla-Phe-N-MePhe-Gly-OH] (H-[NMeA]F[NMeF]G-OH)
- Radicle growth inhibition (%) [1]: greater than 85%
- Radicle growth inhibition (%) ([2]; 5 µM, 12 days, relative to DMSO control): 38%

Compound: CN[C@H](Cc1ccccc1)C(=O)N[C@@H](C)C(=O)N[C@@H](Cc1ccccc1)C(=O)N(C)CC(=O)O [Compound 14, N-Me-D-Phe-Ala-Phe-N-MeGly-OH] (H-[dNMeF]AF[Sar]-OH)
- Radicle growth inhibition (%) ([2]; 67 µM as printed): 53%

Compound: CC(C)C[C@@H]1NC(=O)[C@H](C)NC(=O)CN(C)C(=O)[C@H](Cc2ccccc2)N(C)C1=O [Compound 22, Cyclo-[Ala-Leu-N-MePhe-N-MeGly]] (cyclo(AL[NMeF][Sar]))
- Radicle growth inhibition (%) [1]: 66%

Compound: CC(C)C[C@@H]1NC(=O)[C@H](C)N(C)C(=O)CN(C)C(=O)[C@H](Cc2ccccc2)NC1=O [Compound 23, Cyclo-[N-MeAla-Leu-Phe-N-MeGly]] (cyclo([NMeA]LF[Sar]))
- Radicle growth inhibition (%) [1]: 16%

Compound: CC(C)C[C@@H]1NC(=O)[C@H](C)N(C)C(=O)CNC(=O)[C@H](Cc2ccccc2)N(C)C1=O [Compound 24, Cyclo-[N-MeAla-Leu-N-MePhe-Gly]] (cyclo([NMeA]L[NMeF]G))
- Radicle growth inhibition (%) [1]: 81%
- Radicle growth inhibition (%) ([2]; 10 µM, 12 days, relative to DMSO control): 62%

Compound: C[C@H]1C(=O)N[C@@H](Cc2ccccc2)C(=O)N(C)[C@@H](Cc2ccccc2)C(=O)NCC(=O)N1C [Compound 25, Cyclo-[N-MeAla-Phe-N-MePhe-Gly]] (cyclo([NMeA]F[NMeF]G))
- Radicle growth inhibition (%) [1]: 96% and greater than 85%
- Radicle growth inhibition (%) ([2]; 4 µM, 12 days, relative to DMSO control): 41%

Compound: C[C@@H]1NC(=O)[C@@H](Cc2ccccc2)N(C)C(=O)CN(C)C(=O)[C@H](Cc2ccccc2)NC1=O [Compound 26, Cyclo-[N-Me-D-Phe-Ala-Phe-N-MeGly]] (cyclo([dNMeF]AF[Sar]))
- Radicle growth inhibition (%) ([2]; 7 µM, 12 days, relative to DMSO control): 45%
- Radicle growth inhibition (%) ([2]; 45 µg/mL, 12 days, relative to DMSO control): 67%

Compound: CC(C)C[C@@H]1NC(=O)[C@H](C)NC(=O)CN(C)C(=O)[C@@H](Cc2ccccc2)NC1=O [Cyclo [Ala-Leu-D-Phe-N-MeGly]]
- ring closure, isolated yield ([3]; from H-Ala-Leu-dPhe-MeGly-OH): 76%

Compound: CC(C)C[C@@H]1NC(=O)[C@H](C)NC(=O)CNC(=O)[C@@H](Cc2ccccc2)NC1=O [Cyclo-[Ala-Leu-D-Phe-Gly]]
- ring closure, isolated yield ([3]; from H-Ala-Leu-dPhe-Gly-OH): 5%

Compound: CC(C)C[C@@H]1NC(=O)[C@H](C)NC(=O)CNC(=O)[C@@H](Cc2ccccc2)N(C)C1=O [Cyclo-[Ala-Leu-N-Me-D-Phe-Gly]]
- ring closure, isolated yield ([3]; from H-Ala-Leu-dMePhe-Gly-OH): 66%

Compound: CC(C)C[C@@H]1NC(=O)[C@H](C)NC(=O)CN(C)C(=O)[C@H](Cc2ccccc2)N(C)C1=O [Cyclo-[Ala-Leu-N-MePhe-N-MeGly]]
- ring closure, isolated yield ([3]; from H-Ala-Leu-MePhe-MeGly-OH): 33%

Compound: CC(C)C[C@@H]1NC(=O)[C@H](C)NC(=O)CN(C)C(=O)[C@H](Cc2ccccc2)NC1=O [Cyclo-[Ala-Leu-Phe-N-MeGly]]
- ring closure, isolated yield ([3]; from H-Ala-Leu-Phe-MeGly-OH): 40%

Compound: CC(C)C[C@@H]1NC(=O)[C@H](C)N(C)C(=O)CN(C)C(=O)[C@H](Cc2ccccc2)NC1=O [Cyclo-[N-MeAla-Leu-Phe-N-MeGly]]
- ring closure, isolated yield ([3]; from H-MeAla-Leu-Phe-MeGly-OH): 38%

Compound: CCc1cccc(C)c1N(C(=O)CCl)[C@@H](C)COC [S-metolachlor, reference compound]
- inhibition at 2.1 µg/mL ([1]; Lolium multiflorum, 288 h, positive control at 2.1 µg/mL (1/8 of the commercial dose), 12 days, read-out: Radicle growth inhibition (%)): 100%

Compound: Cyclo-[Ala-Leu-D-Phe-Gly] (head to tail) [Compound 16]
- Radicle growth inhibition (%) [1]: inactive

Compound: Cyclo-[Ala-Leu-N-Me-D-Phe-Gly] (head to tail) [Compound 19]
- Radicle growth inhibition (%) [1]: 87% and greater than 85%
- Radicle growth inhibition (%) ([2]; 9 µM, 12 days, relative to DMSO control): 53%

Compound: Cyclo-[N-Me-D-Phe-Ala-Phe-N-MeGly]
- ring closure, isolated yield [3]: 17%

Compound: Cyclo-[N-MeAla-Leu-D-Phe-Gly]
- ring closure, isolated yield [3]: 67%

Compound: Cyclo-[N-MeAla-Leu-D-Phe-Gly] (head to tail) [Compound 20]
- Radicle growth inhibition (%) [1]: 74%
- Radicle growth inhibition (%) [2, 6]: 32%

Compound: Cyclo-[N-MeAla-Leu-N-MePhe-Gly]
- ring closure, isolated yield [3]: 47%

Compound: Cyclo-[N-MeAla-Leu-Phe-Gly]
- ring closure, isolated yield [3]: 48%

Compound: Cyclo-[N-MeAla-Leu-Phe-Gly] (head to tail) [Compound 17]
- Radicle growth inhibition (%) [2, 6]: 10%

Compound: Cyclo-[N-MeAla-Phe-N-MePhe-Gly]
- ring closure, isolated yield [3]: 86%

Compound: Cyclo-[Phe-N-MeGly-Cys(Bn)-N-MeGly]
- ring closure, isolated yield [3]: 54%

Compound: versicotide D
- cytotoxicity on HepG2 cells (HepG2 cells): low cytotoxicity
- inhibition of cyanobacteria population (cyanobacteria): ability to inhibit cyanobacteria population
- radicle growth inhibition [4]: 74%
